Test results reported in ChEMBL document CHEMBL4665719, “Development of SKI-349, a dual-targeted inhibitor of sphingosine kinase and microtubule polymerization” (Bioorg Med Chem Lett, 2020).
Calls of active or inactive are those of the source. The calls are words filed in the database; no cut-off is given here.

What was measured:
[1] = molecular target: Glycogen synthase kinase-3 beta (Homo sapiens) (UniProt P49841); experiment: Inhibition of wild-type human full length GSK3B (M1 to T433 residues) expressed in mammalian expression system assessed as residual activity at 1 uM by Kinomescan method relative to control
Chain of Glycogen synthase kinase-3 beta (Homo sapiens) (P49841 whole entry, looked up, the tested form may be a part): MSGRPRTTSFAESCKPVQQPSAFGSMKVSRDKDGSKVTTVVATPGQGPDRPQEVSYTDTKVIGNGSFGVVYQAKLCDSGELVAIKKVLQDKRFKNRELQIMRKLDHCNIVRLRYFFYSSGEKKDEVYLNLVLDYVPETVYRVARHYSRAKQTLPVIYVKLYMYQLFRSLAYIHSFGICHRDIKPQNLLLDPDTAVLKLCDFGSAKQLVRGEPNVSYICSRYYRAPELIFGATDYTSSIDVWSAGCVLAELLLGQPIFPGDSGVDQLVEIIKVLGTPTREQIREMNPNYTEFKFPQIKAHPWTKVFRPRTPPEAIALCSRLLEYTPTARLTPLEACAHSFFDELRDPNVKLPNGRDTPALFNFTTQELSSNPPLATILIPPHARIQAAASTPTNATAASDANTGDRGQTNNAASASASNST

HL-60 = experiment: Cytotoxicity against human HL-60 cells assessed as reduction in cell viability after 48 hrs by MTT assay; type: functional, cell-based; details: HL-60, 48 h
[2] = Cytotoxicity against human HL60/VCR cells assessed as reduction in cell viability after 48 hrs by MTT assay; type: functional, cell-based
[3] = molecular target: Glycogen synthase kinase-3 alpha (Homo sapiens) (UniProt P49840); experiment: Inhibition of wild type full length human GSK3A (M1 to S483 residues) expressed in bacterial expression assessed as residual activity at 1 uM by Kinomescan method relative to control
Chain of Glycogen synthase kinase-3 alpha (Homo sapiens) (P49840 2-483 limits assumed): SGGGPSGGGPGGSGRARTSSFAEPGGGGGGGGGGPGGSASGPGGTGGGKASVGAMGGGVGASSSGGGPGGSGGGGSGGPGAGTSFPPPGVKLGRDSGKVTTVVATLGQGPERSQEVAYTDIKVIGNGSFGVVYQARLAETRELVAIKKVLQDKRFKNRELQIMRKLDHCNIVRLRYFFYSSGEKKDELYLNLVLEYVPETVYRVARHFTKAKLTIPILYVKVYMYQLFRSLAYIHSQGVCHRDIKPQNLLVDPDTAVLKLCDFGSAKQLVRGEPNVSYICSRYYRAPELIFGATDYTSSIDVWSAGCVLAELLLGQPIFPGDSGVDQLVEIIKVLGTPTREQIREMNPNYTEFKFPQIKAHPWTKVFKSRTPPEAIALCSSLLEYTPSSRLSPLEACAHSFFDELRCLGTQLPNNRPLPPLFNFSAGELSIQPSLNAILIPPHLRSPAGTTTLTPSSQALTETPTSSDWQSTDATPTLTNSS

[4] = molecular target: Non-receptor tyrosine-protein kinase TYK2 (Homo sapiens) (UniProt P29597); experiment: Inhibition of wild-type human partial length TYK2 JH2 pseudokinase domain (G556 to D888 residues) expressed in mammalian expression system assessed as residual activity at 1 uM by Kinomescan method relative to control
Chain of Non-receptor tyrosine-protein kinase TYK2 (Homo sapiens) (P29597 whole entry, the tested form may be a part): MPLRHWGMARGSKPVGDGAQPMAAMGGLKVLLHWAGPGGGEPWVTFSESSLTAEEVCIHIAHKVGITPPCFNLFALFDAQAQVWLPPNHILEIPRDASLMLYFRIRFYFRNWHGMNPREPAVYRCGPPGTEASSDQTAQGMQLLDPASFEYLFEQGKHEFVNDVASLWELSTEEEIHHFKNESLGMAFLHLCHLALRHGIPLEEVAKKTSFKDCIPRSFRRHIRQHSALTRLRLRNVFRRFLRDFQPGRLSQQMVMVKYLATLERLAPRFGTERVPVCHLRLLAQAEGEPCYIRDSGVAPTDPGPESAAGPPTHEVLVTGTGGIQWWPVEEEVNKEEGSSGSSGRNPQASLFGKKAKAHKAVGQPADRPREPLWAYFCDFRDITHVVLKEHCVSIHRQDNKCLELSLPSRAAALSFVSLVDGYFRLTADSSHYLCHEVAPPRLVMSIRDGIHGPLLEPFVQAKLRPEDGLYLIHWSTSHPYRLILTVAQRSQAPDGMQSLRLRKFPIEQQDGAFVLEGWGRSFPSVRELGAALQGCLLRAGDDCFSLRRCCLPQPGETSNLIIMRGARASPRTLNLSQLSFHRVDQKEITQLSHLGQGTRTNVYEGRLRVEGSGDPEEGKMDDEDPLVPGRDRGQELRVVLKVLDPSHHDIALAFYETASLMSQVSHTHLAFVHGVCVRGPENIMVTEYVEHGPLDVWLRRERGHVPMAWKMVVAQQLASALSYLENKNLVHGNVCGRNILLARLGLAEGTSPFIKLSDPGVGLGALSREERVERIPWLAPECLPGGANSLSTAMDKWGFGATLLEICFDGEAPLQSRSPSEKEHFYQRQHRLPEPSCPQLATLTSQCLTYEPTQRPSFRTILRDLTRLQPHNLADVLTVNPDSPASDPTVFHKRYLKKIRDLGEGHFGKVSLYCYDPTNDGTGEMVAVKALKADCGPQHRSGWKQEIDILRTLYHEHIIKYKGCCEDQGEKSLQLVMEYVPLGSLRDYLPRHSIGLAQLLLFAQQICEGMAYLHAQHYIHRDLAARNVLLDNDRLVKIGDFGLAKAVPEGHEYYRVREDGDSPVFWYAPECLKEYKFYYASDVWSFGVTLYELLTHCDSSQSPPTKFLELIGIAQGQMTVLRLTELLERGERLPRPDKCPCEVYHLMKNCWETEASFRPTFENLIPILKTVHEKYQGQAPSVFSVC

Sphingosine kinase 1 = Sphingosine kinase 1 (Homo sapiens, UniProt Q9NYA1); experiment: Inhibition of recombinant His6x-tagged human SphK1 expressed in HEK293 cells assessed as reduction in S1P formation using D-erythro-sphingosine as substrate by […]
Chain of Sphingosine kinase 1 (Q9NYA1 whole entry): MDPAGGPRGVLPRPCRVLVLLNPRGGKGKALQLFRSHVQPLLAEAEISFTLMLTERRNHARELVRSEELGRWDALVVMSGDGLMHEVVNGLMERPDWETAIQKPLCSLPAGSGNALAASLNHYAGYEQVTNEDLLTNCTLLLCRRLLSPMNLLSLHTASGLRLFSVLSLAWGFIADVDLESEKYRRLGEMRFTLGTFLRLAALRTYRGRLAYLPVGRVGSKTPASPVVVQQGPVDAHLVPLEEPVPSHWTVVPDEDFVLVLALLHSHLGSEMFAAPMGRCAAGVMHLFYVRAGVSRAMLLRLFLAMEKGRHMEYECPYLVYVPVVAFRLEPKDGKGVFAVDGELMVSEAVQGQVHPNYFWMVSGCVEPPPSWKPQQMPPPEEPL

[5] = molecular target: T1, Sphingosine kinase 2 (Homo sapiens) (UniProt Q9NRA0); experiment: Inhibition of SphK2 (unknown origin) catalytic activity at 2 to 5 uM; details: dose microM 2-5
T1 sequence (whole entry): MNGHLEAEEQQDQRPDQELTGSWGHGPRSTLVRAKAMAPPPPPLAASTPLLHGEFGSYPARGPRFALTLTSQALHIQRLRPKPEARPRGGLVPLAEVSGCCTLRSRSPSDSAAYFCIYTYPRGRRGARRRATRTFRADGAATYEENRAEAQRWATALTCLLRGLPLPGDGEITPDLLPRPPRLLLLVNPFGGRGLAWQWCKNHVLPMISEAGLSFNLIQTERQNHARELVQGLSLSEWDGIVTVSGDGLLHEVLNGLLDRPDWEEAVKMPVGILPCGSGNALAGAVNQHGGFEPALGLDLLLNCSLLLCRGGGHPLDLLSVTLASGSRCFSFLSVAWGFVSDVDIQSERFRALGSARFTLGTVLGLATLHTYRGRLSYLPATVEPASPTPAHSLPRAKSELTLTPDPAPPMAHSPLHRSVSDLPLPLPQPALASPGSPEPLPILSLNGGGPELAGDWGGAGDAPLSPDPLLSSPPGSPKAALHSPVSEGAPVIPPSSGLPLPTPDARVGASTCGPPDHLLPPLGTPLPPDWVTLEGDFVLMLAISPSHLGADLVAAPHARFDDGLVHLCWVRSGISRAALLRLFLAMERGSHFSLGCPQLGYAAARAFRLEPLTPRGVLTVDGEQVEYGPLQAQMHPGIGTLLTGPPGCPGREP

[6] = molecular target: T1, Sphingosine kinase 2 (Homo sapiens); experiment: Binding affinity to SphK2 in HEK293 cells assessed as induction of thermal stabilization at 1 uM and 48.8 to 68.2 degreeC by CETSA-based Western blot analysis; type: cell-based
Sphingosine kinase 2 = molecular target: T2, Sphingosine kinase 2 (Homo sapiens, UniProt Q9NRA0); experiment: Binding affinity to SphK2 in HEK293 cells assessed as direct target engagement incubated for 24 hrs followed by thermal denaturation at 61 degreeC by ITDRF-CETSA assay; type: cell-based
T2 sequence (Q9NRA0 whole entry): T1 sequence (whole entry)

Tubulin beta = experiment: Binding affinity to beta tubulin in HEK293 cells assessed as disruption of microtubule polymerization by ITDRF-CETSA assay; type: cell-based, Homo sapiens
[7] = molecular target: T3, Sphingosine kinase 1/2 (Homo sapiens) (UniProt Q9NRA0+Q9NYA1); experiment: Inhibition of SPHK1/SPHK2 in human HL-60 cells assessed as sphingosine level assessed per 10^6 cells at 500 nM after 24 hrs by LC-ESI/MS analysis (reference value: 18.3 +/- 3.5 pmol); type: cell-based
T3 sequence (Q9NYA1 whole entry, looked up, one chain of several): as the sequence (Q9NYA1 whole entry) above

[8] = molecular target: T3, Sphingosine kinase 1/2 (Homo sapiens); experiment: Inhibition of SPHK1/SPHK2 in human HL-60 cells assessed as C16:0 ceramide level assessed per 10^6 cells at 500 nM after 24 hrs by LC-ESI/MS analysis (reference value: 33.5 +/- 4.1 pmol); type: cell-based
[9] = molecular target: Cyclin-dependent kinase 1 (Homo sapiens) (UniProt P06493); experiment: Activation of CDK1 in human HL-60 cells assessed as induction of Bcl2 phosphorylation at Ser70 residue at 300 nM after 24 hrs by Western blot analysis; type: cell-based; details: filed as activator
Chain of Cyclin-dependent kinase 1 (Homo sapiens) (P06493 whole entry, looked up): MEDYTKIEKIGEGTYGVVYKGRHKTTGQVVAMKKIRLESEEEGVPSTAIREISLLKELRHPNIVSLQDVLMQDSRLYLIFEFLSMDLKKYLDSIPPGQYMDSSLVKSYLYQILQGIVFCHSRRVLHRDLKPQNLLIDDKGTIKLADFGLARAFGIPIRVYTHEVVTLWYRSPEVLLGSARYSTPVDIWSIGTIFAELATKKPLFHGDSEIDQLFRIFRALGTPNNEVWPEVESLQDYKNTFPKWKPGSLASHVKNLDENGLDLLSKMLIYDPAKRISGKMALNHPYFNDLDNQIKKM

[10] = molecular target: Cyclin-dependent kinase 1 (Homo sapiens) (UniProt P06493); experiment: Activation of CDK1 in human HL60/VCR cells assessed as activation of caspase 7 at 300 nM after 24 hrs by Western blot analysis; type: cell-based; details: filed as activator
[11] = molecular target: Cyclin-dependent kinase 1 (Homo sapiens) (UniProt P06493); experiment: Activation of CDK1 in human HL-60 cells assessed as induction of Bcl2 phosphorylation at Ser70 residue at 300 nM after 24 hrs in presence of Ro-3306 by Western blot analysis; type: cell-based
[12] = molecular target: Cyclin-dependent kinase 1 (Homo sapiens) (UniProt P06493); experiment: Activation of CDK1 in human HL-60 cells assessed as activation of caspase 7 at 300 nM after 24 hrs in presence of Ro-3306 by Western blot analysis; type: cell-based
MLL-AF9 = experiment: Antitumor activity against human MLL-AF9 xenografted in sub-lethal irradiated C57BL/6J mouse assessed as increase in mouse survival at 1 to 5 mg/kg administered every day; type: functional, organism-based; details: dose mg/kg 1-5
[13] = Effect on hematopoiesis in sub-lethal irradiated C57BL/6J mouse xenografted with […] MLL-AF9 cells assessed as CD45.1+/CD34 cells in bone marrow at 1 mg/kg measured after 6 weeks by flow cytometry analysis (reference value: 93 %); type: ADME, organism-based; details: in vivo, 1008 h
[14] = Effect on hematopoiesis in sub-lethal irradiated C57BL/6J mouse xenografted with […] MLL-AF9 cells assessed as CD45.1+/CD34 cells in bone marrow at 5 mg/kg measured after 6 weeks by flow cytometry analysis (reference value: 93 %); type: ADME, organism-based; details: in vivo, 1008 h
[15] = Effect on hematopoiesis in sub-lethal irradiated C57BL/6J mouse xenografted with […] MLL-AF9 cells assessed as CD45.1+/CD34 cells in spleen at 1 mg/kg measured after 6 weeks by flow cytometry analysis (reference value: 90 %); type: ADME, organism-based; details: in vivo, 1008 h
[16] = Antitumor activity against human MLL-AF9 xenografted in sub-lethal irradiated C57BL/6J mouse assessed as increase in mouse survival at 1 mg/kg administered every day relative to control; type: functional; details: MLL-AF9, light or radiation study
[17] = Toxicity in sub-lethal irradiated C57BL/6J mouse xenografted with […] MLL-AF9 cells assessed as Hb level at 1 mg/kg measured after 2 weeks (reference value: 13.4 +/- 0.5 g/dl); type: organism-based; details: in vivo, 336 h
[18] = Toxicity in sub-lethal irradiated C57BL/6J mouse xenografted with […] MLL-AF9 cells assessed as HCT level at 1 mg/kg measured after 2 weeks (reference value: 45 +/- 1.4 %); type: organism-based; details: in vivo, 336 h
[19] = Toxicity in sub-lethal irradiated C57BL/6J mouse xenografted with […] MLL-AF9 cells assessed as platelet level at 5 mg/kg measured after 2 weeks (reference value: 687 +/- 53 10^3/ml); type: organism-based; details: in vivo, 336 h

## COc1ccc(Nc2nc(N)c(C(=O)c3ccc(OC)c(OC)c3)s2)cc1
[1]
  Activity: 27%
HL-60
  IC50: 22 nM
[2]
  IC50: 23 nM
[3]
  Activity: 2.5%
[4]
  Activity: 14%
Sphingosine kinase 1
  IC50: 30000 nM
[5]
  inhibition: inactive
[6]
  Activity: Active
Sphingosine kinase 2
  IC50: 60 nM
Tubulin beta
  IC50: 25 nM
[7]
  Activity: 27 pmol
[8]
  Activity: 87 pmol
[9]
  Activity: Active
[10]
  Activity: Active
[11]
  Activity: inactive
[12]
  Activity: inactive
MLL-AF9
  Activity: Active
[13]
  Activity: 1%
[14]
  Activity: 7%
[15]
  Activity: 8%
[16]
  survival at 1 mg/kg: 100%
[17]
  Activity: 12.8 g/dL
[18]
  Activity: 44%
[19]
  Activity: 1089 10^3/ml
